Test results taken from publication PMC12329412, “Study of the mass balance, biotransformation, and safety of [^14C]IBI351 in healthy Chinese subjects” (Journal of Biomedical Research, 2024).
Values joined by “and” are separate entries in the source; they are usually repeats but may differ in a detail not shown here. Equal values may be shown once. “Also recorded” adds a separate entry of the source.

Legend:
[1] = Radioactive metabolite profiling in pooled plasma, urine and feces; type: in vivo, human
Procedure: Moreover, four plasma samples at 1 h, 4 h, 48 h, and 96 h were obtained by mixing them in equal volumes. Urine samples were pooled across individuals at an equal volume to obtain one pooled sample within each time period of 0–24 h, 24–48 h, and 48–96 h. Fecal samples (0–192 h) were pooled at the same weight percentages across collection intervals for each subject. Moreover, fecal samples were pooled across individuals at an equal weight to obtain one pooled sample within each time period of 0–72 h, 72–120 h, and 120–192 h. Plasma, urine, and fecal homogenates were extracted and concentrated using organic solvents, and then the redissolved solutions were used for metabolite profile analysis. The plasma, urine, and fecal extracts were separated on HPLC columns, and the HPLC flow fractions were collected in Deepwell LumaPlateTM-96 plates at 15 s/fraction using an automatic fraction collector. The radioactivity of each fraction was quantified using a microplate detector with ARC® Convert and Evaluation software (3.0.2.379) and transformed to obtain the radioactive metabolite spectra. The radioactive metabolite spectra of each sample were integrated to acquire the peak area of each radioactive metabolite peak, the proportion of each spectral peak to the total radioactive intensity of the sample, and the proportion of the radioactivity of the major metabolites to the TRA in the corresponding blood, urine, and fecal samples. Therefore, the ratio of metabolites' concentrations to the total drug exposure (AUC) in the plasma and the ratio of each metabolite's level to the dose administered in the urine and feces were calculated. Liquid chromatography with low-energy radionuclide detection and mass spectrometry was used to identify the main metabolites in human plasma, urine, and fecal samples and to identify the possible biotransformation pathways of IBI351 in these samples.

[2] = Safety analysis: adverse events and laboratory tests; type: in vivo, human; conditions: for Urea: reference range 3.1–8.0; for Urea / TBIL / ALT / GGT / AST / Cr: listed as [14C]IBI351; for TBIL: reference range 5.1–19.0; for ALT: reference range 9.0–50.0; for GGT: reference range 10.0–60.0; for AST: reference range 15.0–40.0; for Cr: reference range 57.0–97.0; for Safety and tolerability: vital signs, physical indexes, electrocardiogram
Procedure: Safety was evaluated based on the adverse events that occurred during the trial. Normal/abnormal changes in physical examination, vital signs, laboratory tests, electrocardiogram, and other results were evaluated before and after the trial.

albumin = target: T1, albumin (Homo sapiens, UniProt P02768); experiment: Covalent binding analysis of IBI351 in the plasma; type: in vitro ADME
T1 construct: from tissue; host or cells: plasma of healthy human male subjects
T1 sequence (P02768 25-609): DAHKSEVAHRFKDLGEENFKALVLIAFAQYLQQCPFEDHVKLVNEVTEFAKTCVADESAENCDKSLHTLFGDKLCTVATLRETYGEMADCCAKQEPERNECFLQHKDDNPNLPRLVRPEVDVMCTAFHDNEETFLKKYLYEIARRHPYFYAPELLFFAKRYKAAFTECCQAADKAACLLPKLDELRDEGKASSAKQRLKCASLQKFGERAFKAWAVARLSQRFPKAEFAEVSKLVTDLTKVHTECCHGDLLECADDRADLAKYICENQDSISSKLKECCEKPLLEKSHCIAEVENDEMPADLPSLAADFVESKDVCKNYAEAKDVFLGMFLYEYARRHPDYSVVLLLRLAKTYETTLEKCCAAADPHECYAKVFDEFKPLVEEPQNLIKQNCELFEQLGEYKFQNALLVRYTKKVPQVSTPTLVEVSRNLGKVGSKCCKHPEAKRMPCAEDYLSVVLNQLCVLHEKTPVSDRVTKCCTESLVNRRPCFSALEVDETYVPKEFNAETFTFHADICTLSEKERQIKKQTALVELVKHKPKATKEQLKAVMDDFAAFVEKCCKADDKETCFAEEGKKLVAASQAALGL

[3] = D3, individual subjects, rows in order 01101–01106
[4] = D8, individual subjects, rows in order 01101–01106
[5] = follow-up visit, individual subjects, rows in order 01101–01106
[6] = single oral 600 mg/150 μCi, listed as [^14C]IBI351

In the case of `C=CC(=O)N1CCN2c3c(c(=O)n(-c4c(C)ccnc4C(C)C)c4nc(-c5c(O)cccc5F)c(Cl)cc34)N(C)C(=O)C2C1` (stereo not shown) [IBI351], the “Feces (0–192 h) % of dose” value ([1]; pooled feces 0–192 h) is reported as 9.71 % of dose, the “Plasma (0–144 h) % of AUC (share of total plasma radioactivity exposure)” value ([1]; pooled plasma 0–144 h) is reported as 4.54 % of AUC and the “Plasma (0–144 h) Metabolite/parent drug (%)” value ([1]; pooled plasma 0–144 h, relative to the parent drug) is reported as 100.00%. The “Urine (0–96 h) % of dose” value ([1]; pooled urine 0–96 h) was 1.16 % of dose, the “Feces+urine % of dose” value ([1]; sum of feces 0–192 h and urine 0–96 h) was 10.87 % of dose and the Urea [2, 3] was 4.3 mmol/L and 4.9 mmol/L and 5.1 mmol/L and 4.5 mmol/L and 4.0 mmol/L and 5.5 mmol/L. The TBIL [2, 3] was 6.4 µmol/L and 12.2 µmol/L and 7.7 µmol/L and 10.0 µmol/L and 11.5 µmol/L and 10.4 µmol/L, the ALT ([2]; D3, individual subjects, 01101, 01102–01106) was 11.4 U/L and 10.3 U/L and 11.0 U/L and 14.4 U/L and 29.0 U/L and 17.0 U/L and the GGT [2, 3] was 9.9 U/L and 17.1 U/L and 19.1 U/L and 33.0 U/L and 14.4 U/L and 20.1 U/L. The AST [2, 3] was 18.5 U/L and 11.5 U/L and 10.9 U/L and 16.4 U/L and 23.6 U/L and 19.0 U/L, the Cr [2, 3] was 73.1 µmol/L and 69.5 µmol/L and 66.4 µmol/L and 69.2 µmol/L and 76.5 µmol/L and 78.7 µmol/L and the Urea [2, 4] was 3.8 mmol/L and 5.4 mmol/L and 5.6 mmol/L and 4.2 mmol/L and 4.5 mmol/L and 5.1 mmol/L. The TBIL [2, 4] was 8.1 µmol/L and 14.2 µmol/L and 4.5 µmol/L and 8.0 µmol/L and 15.1 µmol/L and 13.5 µmol/L, the ALT [2, 4] was 18.3 U/L and 12.1 U/L and 10.5 U/L and 19.8 U/L and 30.9 U/L and 17.9 U/L and the GGT [2, 4] was 12.1 U/L and 25.8 U/L and 16.8 U/L and 33.8 U/L and 17.0 U/L and 19.2 U/L. For the same compound, the AST [2, 4] was 24.1 U/L and 14.2 U/L and 15.8 U/L and 15.2 U/L and 22.2 U/L and 17.7 U/L, the Cr [2, 4] was 69.6 µmol/L and 73.7 µmol/L and 64.2 µmol/L and 72.0 µmol/L and 76.4 µmol/L and 84.3 µmol/L and the “Severity of TEAEs” value ([2]; all TEAEs, single oral 600 mg/150 μCi) was “grade 1”. The Urea [2, 5] was 3.5 mmol/L and 3.8 mmol/L and 5.6 mmol/L and 4.7 mmol/L and 4.1 mmol/L and 6.1 mmol/L, the TBIL [2, 5] was 8.1 µmol/L and 12.3 µmol/L and 4.5 µmol/L and 7.0 µmol/L and 8.8 µmol/L and the ALT [2, 5] was 9.5 U/L and 20.5 U/L and 8.0 U/L and 19.4 U/L and 21.4 U/L and 14.7 U/L. For the same compound, the GGT [2, 5] was 13.4 U/L and 25.8 U/L and 22.0 U/L and 32.9 U/L and 16.9 U/L and 15.9 U/L, the AST [2, 5] was 15.7 U/L and 14.2 U/L and 16.9 U/L and 11.0 U/L and 19.4 U/L and 17.6 U/L and the Cr [2, 5] was 72.8 µmol/L and 73.1 µmol/L and 64.2 µmol/L and 71.4 µmol/L and 66.8 µmol/L and 92.4 µmol/L. The “Subjects experiencing treatment-emergent adverse events (TEAEs)” value ([2]; four of six subjects, TEAEs unrelated to [14C]IBI351, single oral 600 mg/150 μCi) was 66.7%, the “TEAE: diarrhea” value ([2]; share of six subjects, grade 1) was 33.3% and the “TEAE: elevated blood triglycerides” value ([2]; share of six subjects, grade 1) was 33.3%. For the same compound, the “TEAE: positive fecal occult blood” value ([2]; share of six subjects, grade 1) was 16.7%, the “TEAEs leading to death” value ([2]; single oral 600 mg/150 μCi) was “no TEAEs leading to death” and the Serious adverse events [2, 6] was “no serious adverse events; also recorded: no severe adverse events”. For the same compound, the “TEAEs of CTCAE grade ≥ 3” value [2, 6] was “no TEAEs with Common Terminology Criteria for Adverse Events (CTCAE) grade ≥ 3; also recorded: no TEAEs of CTCAE grade ≥ 3”, the Safety and tolerability ([2]; single oral 600 mg/150 μCi) was “generally safe and well tolerated” and the Safety and tolerability [2, 6] was “good safety and tolerance”. For the same compound, the “covalent binding in the plasma” value (albumin) was “presence of covalent binding between IBI351 and albumin”.
